Source: publication PMC4881748 (Journal of the American Chemical Society, 2016)

Tests used:
BoNT/A LC = BoNT/A LC (Clostridium botulinum, UniProt P0DPI0); type: biochemical, C. botulinum
BoNT/A = conditions: cited from earlier work
[1] = test system: BoNT/A SNAP-25 cleavage in hiPSC-derived neurons; type: cell-based, human
[2] = test system: BoNT/A SNAP-25 cleavage in hiPSC-derived neurons; type: cell-based, human; remark: listed apart in the source

Chain of BoNT/A LC (P0DPI0 2-448 limits assumed): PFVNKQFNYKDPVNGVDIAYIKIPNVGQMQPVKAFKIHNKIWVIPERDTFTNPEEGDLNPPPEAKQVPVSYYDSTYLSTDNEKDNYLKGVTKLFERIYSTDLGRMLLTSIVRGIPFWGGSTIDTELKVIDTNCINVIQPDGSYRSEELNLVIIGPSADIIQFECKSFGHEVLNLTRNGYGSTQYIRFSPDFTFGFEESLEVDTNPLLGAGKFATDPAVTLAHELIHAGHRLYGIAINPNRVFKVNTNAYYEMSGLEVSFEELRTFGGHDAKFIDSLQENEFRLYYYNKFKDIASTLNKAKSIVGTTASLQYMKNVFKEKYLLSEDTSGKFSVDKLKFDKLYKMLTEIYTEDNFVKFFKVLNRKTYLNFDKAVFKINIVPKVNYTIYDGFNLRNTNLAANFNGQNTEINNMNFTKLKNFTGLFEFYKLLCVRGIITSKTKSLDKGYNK

| Molecule | Inhibition in the LC enzyme assay (BoNT/A LC) | Inhibition of SNAP-25 cleavage with delayed inhibitor addition [1] | EC50, SNAP-25 protection in cellular assay [2] | also measured |
| --- | --- | --- | --- | --- |
| O=C(O)CCC(=O)NO [4-(hydroxyamino)-4-oxobutanoic acid] | did not demonstrate any inhibition | – | – | – |
| O=C1CCC(=O)N1O [N-hydroxysuccinimide (NHS), N-hydroxysuccinimide] | did not demonstrate any inhibition | – | – | – |
| CO/C1=C\C(C)=C\[C@@H](C)[C@@H](O)[C@@H](C)C/C(C)=C/C=C/[C@H](OC)[C@@H]([C@@H](C)[C@@H](O)[C@H](C)[C@@]2(O)C[C@@H](O)[C@H](C)[C@@H](C(C)C)O2)OC1=O [bafilomycin A1] | – | initially effective | – | Activity when added 0.5 h after toxin exposure (BoNT/A): reduced activity; Activity when added simultaneously or immediately after BoNT/A (BoNT/A): presented activity |
| CC(=O)O[C@@H]1C[C@H](O)[C@@]23CO[C@@H](O)[C@]1(C)[C@@H]2C[C@@H](O)[C@]1(C)[C@@H]3C(=O)[C@H](OC(C)=O)[C@@]2(C)[C@H](c3ccoc3)C[C@H]3O[C@]321 [toosendanin] | – | initially effective | – | – |
| N-acetyl-N-(benzyloxy)acetamide [Compound 10] | – | – | Inactive | – |
| O-benzyl N-hydroxysuccinimide [Compound 7] | – | – | Inactive | – |
